Results published in PMC4072508, “Genome-Wide Prediction and Validation of Peptides That Bind Human Prosurvival Bcl-2 Proteins” (PLoS Computational Biology, 2014).
Read-outs that look alike come from different tables or passages of the source.

How the values were obtained:
Bfl-1 [1] = target: T1, Bfl-1 (Homo sapiens, UniProt Q16548); assay: Peptide SPOT array binding
T1 construct: myc- Bfl-1 SPOT array & FP; made in house
T1 sequence (Q16548 with tags, fused parts or gaps): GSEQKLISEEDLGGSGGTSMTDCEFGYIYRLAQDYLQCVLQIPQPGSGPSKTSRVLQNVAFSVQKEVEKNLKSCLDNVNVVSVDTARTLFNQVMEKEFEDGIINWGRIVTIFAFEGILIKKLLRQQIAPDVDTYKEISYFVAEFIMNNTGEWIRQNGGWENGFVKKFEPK
Description: (§1) Peptide SPOT arrays were synthesized using F-moc chemistry on nitrocellulose membranes at the MIT Biopolymers facility using an Intavis AutoSpot robot. Peptide spots were cut from the membrane, hydrated in 100% methanol, transferred to TBS (50 mM Tris, pH 8.1, 100 mM NaCl, 0.01% Triton X-100) with 1% bovine serum albumin (BSA), here called blocking buffer, and incubated at room temperature for ∼10 minutes. Membranes were then incubated with 10 ml of 1 µM or 100 nM c-Myc-tagged receptor (sequences in Table S6) in TBS for 1 h at room temperature. Membranes were then rinsed 3× with blocking buffer and then incubated with anti-c-myc-Cy3 antibody (Sigma Aldrich C6594) diluted 100-fold in blocking buffer for 1 hour at room temperature. Membranes were rinsed 3× with blocking buffer and scanned on a Typhoon 9400 (GE Healthcare). Images were analyzed with ImageQuant (GE Healthcare), and Cy3 intensity at 580 nm was averaged over a circular area that was equal in size for all spots for a given membrane. Typically, 5–10 known binders and their negative controls were included.

Mcl-1 [2] = target: T2, Mcl-1 (Homo sapiens, UniProt Q07820); assay: Peptide SPOT array binding
T2 construct: myc-Mcl-1 SPOT array & FP; made in house
T2 sequence (Q07820 with tags, fused parts or gaps): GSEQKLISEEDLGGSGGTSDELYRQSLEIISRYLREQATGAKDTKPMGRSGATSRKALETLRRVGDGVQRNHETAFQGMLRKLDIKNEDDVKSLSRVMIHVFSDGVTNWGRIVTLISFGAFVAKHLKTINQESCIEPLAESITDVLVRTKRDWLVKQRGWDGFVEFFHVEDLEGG
Description: as §1

Bcl-xL [3] = target: T3, Bcl-xL (Homo sapiens, UniProt Q07817); assay: Peptide SPOT array binding; conditions: c-Myc-tagged receptor 1 µM or 100 nM, anti-c-myc-Cy3 read-out
T3 construct: myc-Bcl-xL SPOT array & FP; made in house
T3 sequence (Q07817 with tags, fused parts or gaps): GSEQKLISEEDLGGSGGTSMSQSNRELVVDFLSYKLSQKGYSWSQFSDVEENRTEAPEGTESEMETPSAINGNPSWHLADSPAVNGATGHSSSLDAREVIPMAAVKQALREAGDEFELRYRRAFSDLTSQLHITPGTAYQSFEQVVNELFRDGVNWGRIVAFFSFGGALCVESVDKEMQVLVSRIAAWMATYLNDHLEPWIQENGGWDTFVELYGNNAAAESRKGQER
Description: as §1

Bcl-2 [4] = target: T4, Bcl-2 (Homo sapiens, UniProt P10415, DEL53-91); assay: Peptide SPOT array binding; conditions: c-Myc-tagged receptor 1 µM or 100 nM, anti-c-myc-Cy3 read-out
T4 construct: myc- Bcl-2 FP; made in house
T4 sequence (P10415 with tags, fused parts or gaps DEL53-91): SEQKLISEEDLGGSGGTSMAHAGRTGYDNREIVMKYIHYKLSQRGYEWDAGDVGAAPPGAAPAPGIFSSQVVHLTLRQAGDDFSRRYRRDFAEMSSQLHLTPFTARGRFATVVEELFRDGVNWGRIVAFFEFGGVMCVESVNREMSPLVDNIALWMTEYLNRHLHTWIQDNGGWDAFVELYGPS
Description: as §1

Bcl-w [5] = target: T5, Bcl-w (Homo sapiens, UniProt Q92843, Q133R); assay: Peptide SPOT array binding; conditions: c-Myc-tagged receptor 1 µM or 100 nM, anti-c-myc-Cy3 read-out
T5 construct: myc-Bcl-w SPOT array & FP; made in house
T5 sequence (Q92843 with tags, fused parts or gaps Q133R): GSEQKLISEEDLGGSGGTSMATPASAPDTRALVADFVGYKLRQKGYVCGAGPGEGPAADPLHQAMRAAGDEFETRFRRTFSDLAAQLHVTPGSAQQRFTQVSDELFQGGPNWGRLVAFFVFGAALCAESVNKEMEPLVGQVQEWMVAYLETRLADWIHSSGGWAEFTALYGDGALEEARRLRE
Description: as §1

Bcl-xL [6] = target: T3, Bcl-xL; conditions: cited from earlier work
Mcl-1 [7] = target: T2, Mcl-1; conditions: read-out: Binder class, Mcl-1, cited from earlier work
From the text: Negative control mutatio ...

Bcl-w [8] = target: T5, Bcl-w; conditions: natural BH3 peptides, interactions taken from literature; read-out: Binder class, Bcl-w; cited from earlier work
Bcl-2 [9] = target: T4, Bcl-2; conditions: natural BH3 peptides, interactions taken from literature; read-out: Binder class, Bcl-2; cited from earlier work
Bfl-1 [10] = target: T1, Bfl-1; conditions: natural BH3 peptides, interactions taken from literature; read-out: Binder class, Bfl-1; cited from earlier work
[11] = tested on: prosurvival proteins Bcl-xL, Bcl-w, Bcl-2, Mcl-1 and Bfl-1; assay: Peptide SPOT array binding, receptor not specified; design: species or system human; conditions: for Reduction in SPOT array signal when control mutations were introduced: 3aD and 3eL negative controls, receptor not specified; for SPOT array binding specificity among five prosurvival proteins: array IV
Description: as §1

[12] = c-Myc-tagged receptor 1 µM or 100 nM, anti-c-myc-Cy3 read-out
[13] = natural BH3 peptides, interactions taken from literature
[14] = S1 Bim variants, specific binding measured using yeast display, ref Dutta et al. (2010)

Substance	Binder class (Kd bin) (Bcl-xL [6]; [14]) [nM]	Kd (Mcl-1 [7]; [14]) [nM]	also measured
AAQRYGRELRRMSDEFVDSFKKG [Bad]			Reduction in SPOT array signal for at least one of the negative controls, Bfl-1 (Bfl-1 [1]; 3aD / 3eL mutations): less than 25%; Reduction in SPOT array signal for at least one of the negative controls, Mcl-1 (Mcl-1 [2]; 3aD / 3eL mutations): less than 25%
APOL6: peptide from APOL6, putative BH3 motif (KEDLKGNIDKLRALADDIDKTHKKFT)			SPOT array signal as % of the Bim BH3 signal, Bcl-xL (Bcl-xL [3]): 17%
EGEKEVEALKKSADWVSDWSSRP [BNIP3L]			SPOT array signal as % of the Bim BH3 signal, Bcl-2 (Bcl-2 [4]): less than 3%; SPOT array signal as % of the Bim BH3 signal, Bcl-w (Bcl-w [5]): less than 3%; SPOT array signal as % of the Bim BH3 signal, Bcl-xL (Bcl-xL [3]): less than 3%; SPOT array signal as % of the Bim BH3 signal, Bfl-1 (Bfl-1 [1]; [12]): 8%; SPOT array signal as % of the Bim BH3 signal, Mcl-1 (Mcl-1 [2]; [12]): less than 3%
IIRNIARHAAQVGASMDRSIPPG [Bid (X)]			Binder class (Kd bin) (Bcl-xL [6]; [13]): > 10000 nM; Kd (Mcl-1 [7]; [13]): < 1000 nM; Kd (Bcl-w [8]): < 1000 nM; Kd (Bcl-2 [9]): < 1000 nM; Kd (Bfl-1 [10]): > 10000 nM
MTQEVGQLLQDMGDDVYQQYRSL [Mule]			Reduction in SPOT array signal when control mutations were introduced [11]: more than 30%; SPOT array binding specificity among five prosurvival proteins [11]: binding specifically to Mcl-1
PEIWYAQELGRNGDEYNAYYARR	< 1000	> 10000	
PEIWYAQELGRYGDEYNAYYARR	< 1000	> 10000	
PEIWYAQELKRDGDEFNAYYARR	< 1000	> 10000	
PEIWYAQELKRFGDENNAYYARR	< 1000	> 10000	
PEIWYAQELKRYGDENNAYYARR	< 1000	> 10000	
PEIWYAQELQRNGDEFNAYYARR	< 1000	> 10000	
PEIWYAQELRRDGDEYNAYYARR	< 1000	> 10000	
PEIWYAQELRRNGDEYNAYYARR	< 1000	> 10000	
PEIWYAQEVKRYGDEYNAYYARR	< 1000	> 10000	
PEIWYAQEVQRIGDEVNAYYARR	> 10000	< 1000	
RLAEVCAVLLRLGDELEMIRPSV [Bok]			Reduction in SPOT array signal when control mutations were introduced [11]: more than 30%; SPOT array binding specificity among five prosurvival proteins [11]: binding specifically to Mcl-1
